In ChEMBL document CHEMBL3885861, “Open TG-GATES”:

Organism: Rattus norvegicus
Assay: Open TG-GATES - Regimen: Single
Format: toxicity, organism-based, Sprague-Dawley
Design: regimen Single, gender Male, age 6 weeks
Conditions: in vivo, po, 0 mg/kg, route gavage, dose level Control; for APTT / Bas / Eos / Fbg / Hb / Ht / Lym / MCH / MCHC / MCV / Mono / Neu / PT / Plat / RBC / Ret / WBC: tissue Blood; for KIDNEY_L / KIDNEY_R / KIDNEY_TOTAL: tissue Kidney; for LIVER: tissue Liver; for A/G / ALP / ALT / AST / BUN / CRE / Ca / Cl / DBIL / GLC / IP / K / LDH / Na / PL / RALB / TBIL / TC / TG / TP / gamma-GTP: tissue Plasma

## O=C(OC[C@H]1O[C@@H](OC(=O)c2cc(O)c(O)c(OC(=O)c3cc(O)c(O)c(O)c3)c2)[C@H](OC(=O)c2cc(O)c(O)c(OC(=O)c3cc(O)c(O)c(O)c3)c2)[C@@H](OC(=O)c2cc(O)c(O)c(OC(=O)c3cc(O)c(O)c(O)c3)c2)[C@@H]1OC(=O)c1cc(O)c(O)c(OC(=O)c2cc(O)c(O)c(O)c2)c1)c1cc(O)c(O)c(OC(=O)c2cc(O)c(O)c(O)c2)c1 [TANNIC ACID]
3 h
  TERMINAL_BW: 189.9 g
  APTT: 16.1 s
  Bas: 0%
  Eos: 0.6%
  Fbg: 216.2 mg/dL
  Hb: 12.9 g/dL
  Ht: 38.5%
  Lym: 79.4%
  MCH: 22.6 pg
  MCHC: 33.6%
  MCV: 67.3 fL
  Mono: 5%
  Neu: 15.2%
  PT: 11.7 s
  Plat: 106.7 x10_4/uL
  RBC: 573 x10_4/ul
  Ret: 10.3%
  WBC: 111 x10_2/uL
  KIDNEY_L: 0.9 g
  KIDNEY_R: 0.9 g
  KIDNEY_TOTAL: 1.8 g
  LIVER: 9.5 g
  A/G: 2.1
  ALP: 747.6 IU/L
  ALT: 34.4 IU/L
  AST: 68 IU/L
  BUN: 17 mg/dL
  CRE: 0.4 mg/dL
  Ca: 11 mg/dL
  Cl: 103.2 meq/L
  DBIL: 0.016 mg/dL
  GLC: 194.4 mg/dL
  IP: 10.3 mg/dL
  K: 4.8 meq/L
  LDH: 74.4 IU/L
  Na: 139.4 meq/L
  PL: 141.4 mg/dL
  RALB: 3.6 g/dL
  TBIL: 0.5 mg/dL
  TC: 74.8 mg/dL
  TG: 70.6 mg/dL
  TP: 5.4 g/dL
  gamma-GTP: 1.4 IU/L
6 h
  TERMINAL_BW: 186.3 g
  APTT: 15.9 s
  Bas: 0%
  Eos: 0.8%
  Fbg: 227 mg/dL
  Hb: 13.1 g/dL
  Ht: 39.1%
  Lym: 75.2%
  MCH: 22.1 pg
  MCHC: 33.6%
  MCV: 65.6 fL
  Mono: 7.8%
  Neu: 16.4%
  PT: 12.1 s
  Plat: 117.4 x10_4/uL
  RBC: 596 x10_4/ul
  Ret: 10.1%
  WBC: 109.6 x10_2/uL
  KIDNEY_L: 0.9 g
  KIDNEY_R: 0.9 g
  KIDNEY_TOTAL: 1.8 g
  LIVER: 8.6 g
  A/G: 2
  ALP: 831.4 IU/L
  ALT: 34.4 IU/L
  AST: 61.8 IU/L
  BUN: 11.2 mg/dL
  CRE: 0.5 mg/dL
  Ca: 10.8 mg/dL
  Cl: 105.2 meq/L
  DBIL: 0.028 mg/dL
  GLC: 188 mg/dL
  IP: 10.1 mg/dL
  K: 4.7 meq/L
  LDH: 83 IU/L
  Na: 139.4 meq/L
  PL: 131.8 mg/dL
  RALB: 3.6 g/dL
  TBIL: 0.4 mg/dL
  TC: 79.2 mg/dL
  TG: 40.6 mg/dL
  TP: 5.4 g/dL
  gamma-GTP: 2.2 IU/L
9 h
  TERMINAL_BW: 184.6 g
  APTT: 16.7 s
  Bas: 0%
  Eos: 1.2%
  Fbg: 213 mg/dL
  Hb: 12.9 g/dL
  Ht: 38.4%
  Lym: 76.8%
  MCH: 22.2 pg
  MCHC: 33.6%
  MCV: 65.9 fL
  Mono: 8%
  Neu: 14.4%
  PT: 12.1 s
  Plat: 123.3 x10_4/uL
  RBC: 583.4 x10_4/ul
  Ret: 10.2%
  WBC: 92.1 x10_2/uL
  KIDNEY_L: 0.9 g
  KIDNEY_R: 0.9 g
  KIDNEY_TOTAL: 1.7 g
  LIVER: 7.7 g
  A/G: 1.9
  ALP: 669.8 IU/L
  ALT: 34.4 IU/L
  AST: 60 IU/L
  BUN: 12.8 mg/dL
  CRE: 0.4 mg/dL
  Ca: 10.5 mg/dL
  Cl: 105.4 meq/L
  DBIL: 0.062 mg/dL
  GLC: 195.8 mg/dL
  IP: 10.8 mg/dL
  K: 4.9 meq/L
  LDH: 72.2 IU/L
  Na: 137 meq/L
  PL: 138.6 mg/dL
  RALB: 3.6 g/dL
  TBIL: 0.4 mg/dL
  TC: 81.4 mg/dL
  TG: 35.2 mg/dL
  TP: 5.5 g/dL
  gamma-GTP: 2.6 IU/L
24 h
  TERMINAL_BW: 197.9 g
  APTT: 16.7 s
  Bas: 0%
  Eos: 1.2%
  Fbg: 218.4 mg/dL
  Hb: 12.5 g/dL
  Ht: 37.6%
  Lym: 79.6%
  MCH: 22 pg
  MCHC: 33.3%
  MCV: 66.1 fL
  Mono: 6%
  Neu: 13.6%
  PT: 11.8 s
  Plat: 110.9 x10_4/uL
  RBC: 568.6 x10_4/ul
  Ret: 9.9%
  WBC: 98.7 x10_2/uL
  KIDNEY_L: 0.9 g
  KIDNEY_R: 0.9 g
  KIDNEY_TOTAL: 1.8 g
  LIVER: 9.4 g
  A/G: 2.1
  ALP: 821.8 IU/L
  ALT: 41 IU/L
  AST: 66.6 IU/L
  BUN: 18.2 mg/dL
  CRE: 0.5 mg/dL
  Ca: 10.8 mg/dL
  Cl: 103.8 meq/L
  DBIL: 0.004 mg/dL
  GLC: 190.6 mg/dL
  IP: 8.7 mg/dL
  K: 4.7 meq/L
  LDH: 97 IU/L
  Na: 138.2 meq/L
  PL: 144.2 mg/dL
  RALB: 3.7 g/dL
  TBIL: 0.4 mg/dL
  TC: 80.6 mg/dL
  TG: 77.2 mg/dL
  TP: 5.5 g/dL
  gamma-GTP: 1.4 IU/L
